“Also recorded” adds a separate entry of the source.
How the values were obtained:
[1] = test system: SOD1 G93A mouse model of ALS; assay: miRNA expression in lumbar spinal cords of SOD1 G93A mice (qPCR); conditions: oral, 800 mg/kg body weight per day for 48 days
Description: Multiple time-point analysis of miRNA expression in the lumbar spinal cords (L4, L5) of SOD1 G93A mutant mice relative to wild-type sibling controls (3 spinal cords per group). (FIG. 11A) qPCR analysis of miRNAs normalized to average of snoRNA202 and snoRNA234. (FIG. 11B) Levels of mRNA encoding for protein components of the Dicer complex were measured and normalized to the expression of Gapdh. […] (FIG. 11D) Levels of mRNA encoding for protein components of the Dicer complex were measured and normalized to the expression of Gapdh. 2-way ANOVA-testing with significant p-values indicated by *p<0.05, **p<0.01, ***p<0.001. Error bars, s.d.

[2] = test system: frontal cortex of rats; conditions: cited from earlier work
[3] = test system: HEK293 cells transfected with ALS-causing mutant SOD1 G93A; assay: miRNA and pre-miRNA expression (qPCR) in HEK293 cells transfected with SOD1 G93A; assay type: cell-based; conditions: 100 μM Enoxacin
Description: Data normalized to miRNA levels in cultures that were transfected with GFP and treated with Doxycyclin and to the expression of the small RNAs 5S. Pre-miRNA expression normalized to beta-actin. […] For miRNA studies in cultured cells, reverse transcription for consecutive parallel analysis of pre-miRNA and miRNA expression was performed using miScript I & II Kits (Quiagen). Quantitative analysis of miRNA and pre-miRNA expression performed with StepOnePlus Real-Time PCR System (Life technologies Inc.). All experiments were performed in at least 3 independent biological repeats and qPCR performed in technical duplicates.

[4] = test system: SOD1 G93A mouse model of ALS; assay: In vivo Enoxacin study of neuromuscular function in SOD1 G93A mice
Description: 800 mg/kg-bodyweight/day (n=40) or carrier (water; n=37) to SOD1 G93A male mice started day 42 of the mouse life. […] 200 mg/kg-bodyweight/day or carrier (water) to SOD1 G93A male mice started day 42 of the mouse life. […] Error bars, s.d.
Food and water was provided ad libitum. […] All other tests employed 2-way ANOVA.
To further evaluate motor function an automated quantitative gait analysis was performed using the CatWalk system [Neumann et al. (2009) J Neurosci Methods 176(1): 34-44].

[5] = cited from earlier work
[6] = test system: SOD1 G93A mice; assay: Preliminary Enoxacin study in SOD1 G93A mice (from age of 50 days in drinking water); assay type: in vivo, mouse
Description: For in vivo experiments, transgenic SOD1 (superoxide dismutase 1) mice were used which express a G93A mutant form of human SOD1. […] Mouse life span and neuromuscular function were monitored. Neuromuscular function was assessed by neurological score that tests the mouse muscle tonus reflexes and overall in-cage locomotive activity as previously described in […] et al. [[…] et al., Brain Res. (2011) Jun. 7; 1394:90-104]. Hang-wire test was utilized which measures gross physical strength of forelimbs, hindlimbs, capacity to adduct when hand on a pole and to walk. Automated Catwalk gait analysis system was utilized which is based on camera monitored computerized locomotion testing automated system by Noldus Information Technology, The Netherlands.

[7] = test system: HEK293 cells transfected with ALS-causing mutants TDP-43 A315T or FUS 495X; assay: miRNA and pre-miRNA expression (qPCR) in HEK293 cells transfected with ALS-causing TDP-43 or FUS mutants; assay type: cell-based; conditions: 100 μM Enoxacin
Excerpt: Depicted are bar-graph representations of relative miRNA expression levels in cells, transfected with GFP and treated with Doxycyclin, compared to the expression of the small RNAs U6 or 5S, on a log2 scale. […] Data normalized to miRNA levels in cultures that were transfected with GFP and treated with Doxycyclin and to the expression of the small RNAs U6 or 5S. Pre-miRNA expression normalized to beta-actin. […] For miRNA studies in cultured cells, reverse transcription for consecutive parallel analysis of pre-miRNA and miRNA expression was performed using miScript I & II Kits (Quiagen). Quantitative analysis of miRNA and pre-miRNA expression performed with StepOnePlus Real-Time PCR System (Life technologies Inc.). All experiments were performed in at least 3 independent biological repeats and qPCR performed in technical duplicates. The present inventors reasoned that Dicing of pre-miRNAs is inhibited by the expression of ALS-causing versions of TDP-43 or FUS and thus searched for changes in mRNA encoding for miRNA-processing factors in gene expression and splicing data from the same patients^9. […] Thus, impaired miRNA bioprocessing in ALS may be reversible by a non-toxic Fluoroquinolone.

[8] = humans; single Enoxacin of 600 mg; cited from earlier work
[9] = Enoxacin pharmacokinetics and efficacy in CF-1 mice (literature); assay type: in vivo, mouse; conditions: 100 mg/kg orally in drinking water per day
[10] = test system: TDP-43 A315T mouse model of ALS
Description: 200 mg/kg-bodyweight/day (n=9) or carrier (water; n=8) to TDP-43 A315T mutant female mice started at day 42 of the mouse life. (FIG. 13A) Onset of symptoms (neurological score 1); 2-way ANOVA p=0.0013. […] Error bars, s.d.
Animals were group-housed on a 12 hour light-dark cycle. Food and water was provided ad libitum. […] RotaRod™ performance (San Diego Instruments) was evaluated at ramp speed 4, 40 rpm. Data was presented as the average latency to fall off the rotarod of three independent rounds per time point, and was normalized to average initial performance at pre-symptomatic stage for each individual for each time point. A fully automated gait analysis with the Catwalk XT™ (Noldus) system was performed. Data was obtained of more than 4 independent rounds on the apparatus. For Hangwire muscle strength assessment, mice were allowed forelimb grip onto a 2-mm thick horizontal metal wire, suspended 80 cm above surface. Ability to successfully raise hindlimbs to grip the wire and crawling to the end of the wire was scored: 1=Successful four-paw grip and crawling to the end of the wire within less than 60 seconds. 2=Four-paw grip for more than 15 seconds without crawling. 3=Failure to successfully establish hindlimb grip in 60 seconds. 4=Inability to sustain forelimb grip for 60 seconds. Each mouse was evaluated in 2 sessions on 2 consecutive days, consisting of 3 trials each, with a 15 minute inter-trial interval. […] 1=collapse or partial leg collapse towards midline or hind leg trembling during tail suspension. 2=toes curl under at least twice during a 12 inch walk, or any part of foot is dragging along cage/table bottom. 3=rigid paralysis or minimal joint movement, foot not being used for forward motion. 4=humane endpoint, mouse cannot right itself within 30 seconds on either side. The locomotion of animals was quantified over a period of 46 hrs in the home cage, by automated sensing of body-heat image using an InfraMot (TSE-Systems). Individual animal movements were summed up every 30 minutes. Animal statistics: Homecage locomotion was analyzed using the 2-sided Student's t-test. Rotarod performance was evaluated using the 2-way ANOVA with repeated measures for each individual. Weight peak, weight decline, onset of symptoms and survival were calculated with GraphPad Prism 6 using the Logrank (Mantel-Cox) test. All other tests employed 2-way ANOVA.

[11] = test system: interaction of Ago2 with Dicer and eIF3L; assay: Targeted mass spectrometry of Ago2 interactions in FUS R495X-expressing cells; assay type: cell-based; conditions: Cycloheximide 0.02 μg/ml, 72 hrs
Description: (FIG. 9A) The ratio of pre-miRNA to mature miRNA levels in NSC-34 cells, transfected with plasmids as indicated and in cells treated for 72 hrs with carrier alone (water, black) or with cycloheximide (CHX, 0.02 μg/ml, gray). Data normalized to control plasmid transfection. Pre-miRNAs further normalized to Gapdh (for FUS R495X, TDP-43 A315T) or to beta-actin (SOD1 G93A) and miRNA levels normalized to Snord68. Average of three independent experiments except for pre-miRNAs in the study of FUS R495X (n=2). Targeted quantitative mass spectrometry analysis of changes in the binding of Ago2 or Dicer to a set of proteins interactors under stress (FIGS. 9B-E). Immunoprecipitated Ago2-Flag (FIG. 9B) or Dicer-Flag (FIG. 9C) from HEK 293 cells, cultured under basal conditions or treated with sodium arsenite (0.5 mM, 60 min) was subjected to targeted mass-spectrometry analysis. Data is averaged from two or three different peptide standards per protein and normalized to the levels of co-immunoprecipiated peptides from untreated cells. Statistically significant result in a student t-test, between arsenite and control treatment is denoted (*p<0.05). Targeted mass spectrometry of (FIG. 9D) Dicer cofactors or (FIG. 9E) SG components, immunoprecipitated with AGO-Flag in FUS R495X-expressing HEK 293 that were further treated for 72 hrs with carrier alone or Cycloheximide (0.02 μg/ml). […]

[12] = test system: NSC-34 cells transfected with FUS R495X, TDP-43 A315T or SOD1 G93A; assay: Ratio of pre-miRNA to miRNA levels in NSC-34 cells transfected with ALS-causing mutants; assay type: cell-based; conditions: CHX 0.02 μg/ml, 72 hrs
Description: Ratio of pre-miRNA to miRNA expression levels in NSC-34 cells, transfected with plasmids that drive the expression of FUS R459X (FIG. 10A), TDP-43 A315T (FIG. 10B) or SOD1 G93A (FIG. 10C), relative to control plasmid transfection. […] Average of 3 independent experiments, except for pre-miRs in FUS R495X (n=2).
RNA was extracted using Tri reagent (Molecular Research Center Inc.) or Qiazol with consecutive use of the miRNeasy Mini Kit (Qiagen). Pre-miRNA and miRNA reverse transcription was performed using miScript Kits No. I & II (Qiagen). Quantitative analysis of miRNA and pre-miRNA expression performed in more than 3 independent biological repeats and additionally in technical duplicates with StepOnePlus quantitative Real-Time PCR System and 2-sided ANOVA-test performed with DataAssist Software (Life technologies Inc.). […]

[13] = oral 800 mg/kg-bodyweight/day from day 42
[14] = 200 mg/kg in drinking water from the age of 50 days

Compound: CCn1cc(C(=O)O)c(=O)c2cc(F)c(N3CCNCC3)nc21 [Enoxacin]
- mRNA levels of Ago2, Dicer, PACT and TRBP [1]: remained unchanged
- miRNA levels in lumbar spinal cords ([1]; from day 42, harvest day 90): compensated
- expression of miRNAs in the frontal cortex [2]: increase the expression of miRNAs
- impact on depression [2]: beneficial impact
- mature miRNA expression [3]: recovers the downregulation of mature miRNA expression
- pre-miRNA levels [3]: reverses pre-miRNA upregulation
- gross strength (hangwire assay) ([4]; 200 mg/kg-bodyweight/day): significant improvement in gross strength
- homecage locomotion (InfraMot) ([4]; 200 mg/kg-bodyweight/day, 46 hrs, day 129-130): moved significantly more than untreated controls
- Rotarod performance ([4]; 200 mg/kg-bodyweight/day, day 120, normalized to day 50): beneficial impact; also recorded: stable performance at day 120
- swing speed (CatWalk gait analysis) ([4]; 800 mg/kg-bodyweight/day, day 73): significantly higher
- stride length (CatWalk gait analysis) ([4]; 800 mg/kg-bodyweight/day, day 80): significantly increased
- Rotarod performance ([4]; 800 mg/kg-bodyweight/day, normalized to day 92): significantly improved performance
- delay at the onset of neurological symptoms (neurological score 1) [4, 13]: about 7 days
- neurological status (neurological score) [4, 13]: superior to untreated controls
- onset of weight decline (loss of 1 gram body weight after the weight peak) [4, 13]: delayed
- weight peak [4, 13]: delayed
- survival / lifespan (Kaplan-Meier) ([4]; oral 800 mg/kg-bodyweight/day from day 42, 800 mg/kg): no significant differences; also recorded: did not extend the lifespan
- activity in mice ([5]; 100 mg/kg orally in drinking water per day): active
- mean serum peak concentrations ([5]; mice, 100 mg/kg orally in drinking water per day): 4 mg/L
- toxicity in mice ([5]; mouse, in vivo): non-toxic
- gross strength in a hang-wire test [6, 14]: beneficial impact
- neurological score [6, 14]: beneficial impact
- overall lifespan [6, 14]: marginal effect
- overall locomotive function in a computerized cat-walk assay [6, 14]: beneficial impact
- deterioration in mouse neuromuscular function ([6]; neurological score, hang-wire test, automated cat-walk study): slower
- mature miRNA expression [7]: reversed the negative impact of ALS-causing TDP-43 or FUS mutants on miRNA maturation; also recorded: recovers the downregulation of mature miRNA expression
- pre-miRNA levels [7]: reverses pre-miRNA upregulation
- plasma peak concentration [8]: 3.7 µg/mL
- serum peak concentration expressed in molar terms [9]: 12.5 µM
- Rotarod performance up to day 120 ([10]; 200 mg/kg-bodyweight/day): stable performance up to day 120 of life
- gross strength (hangwire assay) ([10]; 200 mg/kg-bodyweight/day): improved
- average stride length (Catwalk) ([10]; 200 mg/kg-bodyweight/day, day 83): longer
- Rotarod test ([10]; oral 200 mg/kg-bodyweight/day from day 42): performed better than the untreated control group
- neurological score ([10]; oral 200 mg/kg-bodyweight/day from day 42, female mice): better than that of untreated controls

Compound: C[C@@H]1C[C@@H]([C@H](O)CC2CC(=O)NC(=O)C2)C(=O)[C@@H](C)C1 [cycloheximide]
- mutant-induced interaction of Ago2 with Dicer and eIF3L [11]: reduced mutant-induced interaction of Ago2 with Dicer and eIF3L
- Dicer complex activity (ratio of pre-miRNA to mature miRNA) [12]: prevented the reduction in Dicer complex activity
